Laboratory results taken from US5525328A, “Nanoparticulate diagnostic diatrizoxy ester X-ray contrast agents for blood pool and lymphatic system imaging” (NanoSystems L.L.C., priority 1994, dated 1996).

Key:
[1] = Particle size after storage for 1 additional week at room temperature (shelf stability); type: physicochemical; conditions: with both F108 and T908
Experimental: Compound 2 was added to each of 3×1.5 oz brown glass bottles containing approximately 12 ml of zirconium silicate (1.1 mm dia.) beads in an amount sufficient to be 15% (w/v) of the final suspension. Bottle A contained 3% (w/v) Pluronic F-68. Bottle B contained 3% (w/v) Pluronic F108. Bottle C contained 3% (w/v) Tetronic T-908. The resulting suspensions were milled on a roller mill at approximately 150 rpm for a total of 9 days. Estimates of particle size determined at various intervals were as detailed below: […]

[2] = Particle size after autoclaving at 121° C. for 20 min. (heat stability); type: physicochemical
Experimental: Compound 2 was added to each of 3×1.5 oz brown glass bottles containing approximately 12 ml of zirconium silicate (1.1 mm dia.) beads in an amount sufficient to be 15% (w/v) of the final suspension. Bottle A contained 3% (w/v) Pluronic F-68. Bottle B contained 3% (w/v) Pluronic F108. Bottle C contained 3% (w/v) Tetronic T-908. The resulting suspensions were milled on a roller mill at approximately 150 rpm for a total of 9 days. Estimates of particle size determined at various intervals were as detailed below:
0.1% (w/v) DOSS was added to the F108 and T908 samples for autoclaving as cloud point modifiers.
(§1) Compound 2 was milled with zirconium silicate (1.1 mm dia) beads in the presence of Pluronic F-108 for 3 days. The final particle size was determined to be 235 nm. At this point, sterile PEG 400 was added to the suspension such that at completion, the formulation contained 15% (w/v) WIN 70146, 3% (w/v) Pluronic F-108, and 10% (w/v) PEG 400. This formulation was then autoclaved under standard conditions, i.e., 121° C. for 20 min., resulting in a final particle size of 248 nm.

[3] = Aqueous solubility relative to the butyrate ester; type: physicochemical
blood pool = test: CT imaging, blood pool opacification and clearance; type: in vivo, white New Zealand rabbits
Experimental: (§2) This sample was examined for imaging efficacy at the Center for Imaging and Pharmaceutical Research (CIPR) at the Massachusetts General Hospital in Charlestown, Mass. The sample was injected into white New Zealand rabbits at a dose of 3 ml/kg as a slow bolus injection. At times of 5, 15, 30, 60 and 120 min. post injection, the opacification of the liver, spleen, and blood pool as measured in the aorta and within the left ventricle was determined by computed tomography (CT) using a Toshiba 900S Imager CT scanner and associated software.
(§3) This formulation was evaluated at CIPR for both blood pool and lymphographic imaging in New Zealand White Rabbits using the above-described protocol (3 ml/kg) for blood pool imaging and 2 injections (0.25 ml) per paw for lymphography. […] Scanning was carried out using a Toshiba 900S Imager CT scanner and image density was calculated from iodinated standards imaged simultaneously with the animals.

liver = test: CT imaging, liver opacification and clearance; type: in vivo, white New Zealand rabbits
Experimental: as §2

spleen = test: CT imaging, spleen opacification and clearance; type: in vivo, white New Zealand rabbits
Experimental: as §2, with “[…],” for “At times of 5, 15, 30, 60 and 120 min. post injection,”

lymph = test: Lymphographic imaging by CT; type: in vivo, New Zealand White Rabbits; conditions: autoclaved Pluronic F-108/PEG 400 formulation; 2 injections (0.25 ml) per paw
Experimental: as §3

[4] = Particle size after milling (light scattering); type: physicochemical
Experimental: 15% Compound 2 was milled with 4% Pluronic F-108 in the presence of zirconium silicate (1.1 mm dia) beads for 3 days under aseptic conditions. No additional salts or surfactants were added. The average particle size of the resulting nanoparticle suspension was 162 nm as determined by light scattering.
as §1

[5] = Crystal forms / polymorphism on recrystallization; type: physicochemical; conditions: e.g., when recrystallized from various solvents
[6] = 15% Compound 2, 4% Pluronic F-108, 3 ml/kg slow bolus
[7] = 24 hours post injection, 3 ml/kg

| Compound | Shelf stability [1] | Final particle size after autoclaving ([2]; 15% (w/v) compound, 3% (w/v) Pluronic F-108, 10% (w/v) PEG 400, 121° C. for 20 min.) | Stability to heat autoclaving ([2]; with both F108 and T908) | Aqueous solubility, times lower than ethyl 2-(3,5-bis(acetylamino)-2,4,6-triiodobenzoyloxy)butyrate [3] | Blood pool opacification, duration (blood pool; [6]) | Blood pool opacification, grade (blood pool; [6]) | Clearance from the blood (blood pool; [7]) | Blood pool opacification, duration (blood pool; autoclaved Pluronic F-108/PEG 400 formulation, 3 ml/kg) | Liver opacification, duration (liver; [6]) | Liver opacification, grade (liver; [6]) | Clearance from the liver (liver; [7]) | Spleen opacification, duration (spleen; [6]) | Spleen opacification, grade (spleen; [6]) | Clearance from the spleen (spleen; [7]) | Lymphography level of opacification (lymph) | Lymphography performance (lymph) | Average particle size ([4]; 15% Compound 2, 4% Pluronic F-108, milled 3 days, light scattering) | Final particle size after milling ([4]; Pluronic F-108, milled 3 days, before PEG 400 and autoclaving) | Stability during autoclaving ([2]; nanoparticulate formulations, conventional heat sterilization) | Crystal forms [5] |
| --- | --- | --- | --- | --- | --- | --- | --- | --- | --- | --- | --- | --- | --- | --- | --- | --- | --- | --- | --- | --- |
| CCCCC(OC(=O)c1c(I)c(NC(C)=O)c(I)c(NC(C)=O)c1I)C(=O)OCC (centres unmarked) [Compound 2, ethyl 2-(3,5-diacetamido-2,4,6-triiodobenzoyloxy)hexanoate] | excellent stability to heat autoclaving and shelf stability | 248 nm | excellent stability to heat autoclaving | about 40 times | > 30 min | excellent | complete clearance | at least 30 min | 120 min | very good | partial clearance | 120 min | very good | partial clearance | highest level of opacification noted to date in this indication | excellent lymphography agent | 162 nm | 235 nm |  |  |
| CCOC(=O)C(CC)OC(=O)c1c(I)c(NC(C)=O)c(I)c(NC(C)=O)c1I (centres unmarked) [ethyl 2-(3,5-bis(acetylamino)-2,4,6-triiodobenzoyloxy)butyrate, reference compound] |  |  |  |  |  |  |  |  |  |  |  |  |  |  |  |  |  |  | do not exhibit good stability during autoclaving | exhibits multiple crystal forms, i.e., polymorphs |
